Where two headings read alike, the source gives them in different places.

For assay [1], the system named is MCF-7 (Breast carcinoma) cells. As to the kind of experiment: Cell cycle distribution by flow cytometry (FACS). The class given is cell-based. Conditions: MCF-7 cells, 2 μM, 24h. As for the experimental part:
FIG. 1 represents FACS analysis of cell cycle distribution of MCF-7 cells after treatment with compounds CA-4, 21a, 21d, 4c, 6d, 6e, 6f, 7d, 7h and 7j at 2 μM concentration for 24h and control cells are the cells treated with DMSO (0.25%).
(§1) In order to investigate the mechanism underlying the anti-proliferative effect of the compounds the cell cycle distribution was analyzed in K562 (Leukemia) and MCF-7 (Breast carcinoma) cell lines by flow cytometry. Compounds CA-4, 21a, 21d, 4c, 6d, 6e, 6f, 7d, 7h and 7j have shown 1.72%, 14%, 12%, 14%, 12%, 14%, 14%, 16%, 16% &12% in K562 cells and 49.63%, 21%, 20%, 18%, 21%, 21%, 21%, 24%, 23% and 23% in MCF-7 cell line respectively. […] Thus compound 7d was considered for further studies (FIG. 1).

The subject of a further assay is p21. Description: Western blot, apoptosis proteins in MCF-7 cells. The class given is cell-based. Conditions: 2 μM, 24h. As for the experimental part: (§2) FIG. 3 represents effect of compound 7d and 7h on p21 and caspase-9. MCF-7 cells were treated with 2 μM concentration of compounds 7d and 7h for 24h. The cell lysates were collected and probed with anti-bodies against p21 and caspase-9. beta-actin was used as loading control. Con: Control (untreated).
(§3) Activation of tumor suppressor gene p21 was the important regulator of apoptotic pathway caused by various stimuli. In many instances the apoptotic cell death is mediated by caspases, thus the possible involvement of p21 and caspase protein and its role in apoptosis has been investigated. MCF-7 cells were treated with 7d, 7h (the effective compounds of cell cycle arrest) 21a, 21d and CA-4 at 2 μM concentration.
On the technique in general: Immunoblotting shows a protein as a band on a membrane.

The test system of a further assay is caspase-9. Description: Western blot, apoptosis proteins in MCF-7 cells. In kind it is cell-based. As to conditions: 2 μM, 24h. The procedure:
as §2, §3

For a further assay, the system named is K562 (Leukemia) cells. As to the kind of experiment: Cell cycle distribution by flow cytometry. The class given is cell-based. The procedure:
as §1

For the next assay, the system named is MDA-MB-435. Description: SRB anticancer assay, melanoma. In kind it is cell-based, human. As to conditions: MDA-MB-435, 48 h.
A further assay has as its system SK-OV-3. Description: SRB anticancer assay, ovarian. In kind it is cell-based, human. As to conditions: SK-OV-3, 48 h. A general note: In SRB staining, fixed cells bind dye roughly in proportion to their protein.
A further assay relates to MCF7. Description: SRB anticancer assay, breast. In kind it is cell-based, human. Conditions: MCF7, 48 h.
For a further assay, the system named is SR. Description: SRB anticancer assay, leukemia. Conditions: 48 h. The class given is cell-based, human.
Another assay has as its system SF-268. Description: SRB anticancer assay, CNS. In kind it is cell-based, human. Conditions: SF-268, 48 h.
Another assay concerns DU-145. As to the kind of experiment: SRB anticancer assay, prostate. Conditions: DU-145, 48 h. In kind it is cell-based, human.
A further assay concerns ACHN. Description: SRB anticancer assay, renal. The class given is cell-based, human. Conditions: 48 h.
A further assay relates to SW-620. Description: SRB anticancer assay, colon. Conditions: SW-620, 48 h. In kind it is cell-based, human.
For another assay, the system named is SNB-19. Description: SRB anticancer assay, CNS. Conditions: SNB-19, 48 h. The class given is cell-based, human.
For the next assay, the system named is SK-MEL-28. Description: SRB anticancer assay, melanoma. The class given is cell-based, human. Conditions: SK-MEL-28, 48 h.
In a further assay the test system is OVCAR-3. As to the kind of experiment: SRB anticancer assay, ovarian. In kind it is cell-based, human. Conditions: OVCAR-3, 48 h.
The test system of another assay is HCT-116. Description: SRB anticancer assay, colon. In kind it is cell-based, human. As to conditions: HCT-116, 48 h.
In the next assay the test system is NCI-H522. Description: SRB anticancer assay, non-small lung. The class given is cell-based, human. As to conditions: NCI-H522, 48 h.
The next assay has as its system NCI-H322M. Description: SRB anticancer assay, non-small lung. The class given is cell-based, human. Conditions: 48 h.
In the next assay the test system is MALME-3M. As to the kind of experiment: SRB anticancer assay, melanoma. The class given is cell-based, human. As to conditions: MALME-3M, 48 h.
A further assay deals with EKVX. Description: SRB anticancer assay, non-small lung. The class given is cell-based, human. Conditions: 48 h.
A further assay deals with A498. Description: SRB anticancer assay, renal. Conditions: A498, 48 h. The class given is cell-based, human.
For the next assay, the system named is KM12. As to the kind of experiment: SRB anticancer assay, colon. In kind it is cell-based, human. As to conditions: KM12, 48 h.
A further assay deals with K-562. As to the kind of experiment: SRB anticancer assay, leukemia. Conditions: K-562, 48 h. The class given is cell-based, human.
In another assay the test system is A549/ATCC. Description: SRB anticancer assay, non-small lung. Conditions: 48 h. The class given is cell-based, human.
A further assay concerns OVCAR-4. Description: SRB anticancer assay, ovarian. In kind it is cell-based, human. As to conditions: OVCAR-4, 48 h.
A further assay deals with NCI-H226. As to the kind of experiment: SRB anticancer assay, non-small lung. The class given is cell-based, human. As to conditions: NCI-H226, 48 h.
Another assay has as its system NCI-H23. As to the kind of experiment: SRB anticancer assay, non-small lung. The class given is cell-based, human. As to conditions: NCI-H23, 48 h.
Another assay has as its system OVCAR-5. As to the kind of experiment: SRB anticancer assay, ovarian. The class given is cell-based, human. As to conditions: OVCAR-5, 48 h.
A further assay concerns U251. Description: SRB anticancer assay, CNS. The class given is cell-based, human. As to conditions: U251, 48 h.
The test system of a further assay is SN12C. Description: SRB anticancer assay, renal. The class given is cell-based, human. As to conditions: 48 h.
The subject of another assay is HT29. As to the kind of experiment: SRB anticancer assay, colon. The class given is cell-based, human. As to conditions: HT29, 48 h.
The test system of the next assay is CCRF-CEM. Description: SRB anticancer assay, leukemia. The class given is cell-based, human. As to conditions: 48 h.
The next assay has as its system HS 578T. Description: SRB anticancer assay, breast. The class given is cell-based, human. As to conditions: 48 h.
A further assay deals with SK-MEL-5. Description: SRB anticancer assay, melanoma. Conditions: SK-MEL-5, 48 h. In kind it is cell-based, human.
For a further assay, the system named is IGROV1. As to the kind of experiment: SRB anticancer assay, ovarian. The class given is cell-based, human. As to conditions: IGROV1, 48 h.
A further assay relates to UACC-62. As to the kind of experiment: SRB anticancer assay, melanoma. The class given is cell-based, human. As to conditions: UACC-62, 48 h.
For a further assay, the system named is TK-10. As to the kind of experiment: SRB anticancer assay, renal. As to conditions: TK-10, 48 h. The class given is cell-based, human.
For a further assay, the system named is MDA-MB-231/ATCC. Description: SRB anticancer assay, breast. The class given is cell-based, human. As to conditions: 48 h, read-out: GI50.
Another assay relates to UO-31. As to the kind of experiment: SRB anticancer assay, renal. The class given is cell-based, human. As to conditions: UO-31, 48 h.
The subject of a further assay is CAKI-1. Description: SRB anticancer assay, renal. The class given is cell-based, human. As to conditions: CAKI-1, 48 h.
Another assay deals with M14. As to the kind of experiment: SRB anticancer assay, melanoma. The class given is cell-based, human. Conditions: M14, 48 h.
For another assay, the system named is RXF 393. As to the kind of experiment: SRB anticancer assay, renal. Conditions: RXF 393, 48 h. The class given is cell-based, human.
In the next assay the test system is NCI-H460. As to the kind of experiment: SRB anticancer assay, non-small lung. In kind it is cell-based, human. As to conditions: NCI-H460, 48 h.
A further assay relates to 786-0. Description: SRB anticancer assay, renal. As to conditions: 786-0, 48 h. The class given is cell-based, human.
The next assay has as its system SF-295. As to the kind of experiment: SRB anticancer assay, CNS. In kind it is cell-based, human. As to conditions: SF-295, 48 h.
The test system of a further assay is BT-549. Description: SRB anticancer assay, breast. In kind it is cell-based, human. Conditions: BT-549, 48 h.
For a further assay, the system named is PC-3. As to the kind of experiment: SRB anticancer assay, prostate. Conditions: PC-3, 48 h. In kind it is cell-based, human.
The subject of a further assay is HOP-62. As to the kind of experiment: SRB anticancer assay, non-small lung. The class given is cell-based, human. Conditions: HOP-62, 48 h.
The subject of a further assay is MOLT-4. Description: SRB anticancer assay, leukemia. As to conditions: MOLT-4, 48 h. In kind it is cell-based, human.
In the next assay the test system is SNB-75. As to the kind of experiment: SRB anticancer assay, CNS. Conditions: SNB-75, 48 h. The class given is cell-based, human.

`COc1ccc(/C=C\c2cc(OC)c(OC)c(OC)c2)cc1O` [CA-4, Combretastatin A-4, reference compound]: the “cells in G2/M phase” value amounted to 49.63% in assay [1] and 1.72% in the assay with K562 (Leukemia) cells. Further, the “p21 protein (Western blot)” value in the assay with p21 is “increase”. For the same compound, in the assay on caspase-9, the “caspase-9 protein (Western blot)” value is given as “increase”.

In general, GI50 refers to the concentration at which growth is held to half of that of the control. As to `Cc1cc(-c2nc3ccc(O)cc3s2)ccc1N` [Compound 3b, reference compound], the GI50 in the assay on MDA-MB-435 worked out at 89.1 µM; in the assay with SK-OV-3, 37.2 µM; in the assay on MCF7, 56.2 µM; in the assay with SR it was 21.9 µM; with SF-268, 35.5 µM; in the assay on DU-145, 33.9 µM. The GI50 in the assay with ACHN worked out at 53.7 µM; in the assay with SW-620, 66.1 µM; in the assay with SNB-19, 45.7 µM; in the assay on SK-MEL-28 it was 64.6 µM; with OVCAR-3 it was 38.9 µM; in the assay with HCT-116 it was 43.7 µM. Moreover, the GI50 in the assay on NCI-H522 stood at 30.2 µM; with NCI-H322M, 39.8 µM; with MALME-3M, 83.2 µM; with EKVX, 4.07 µM; in the assay with A498, 41.7 µM; in the assay with KM12 it was 57.6 µM. Moreover, the GI50 in the assay with K-562 was determined as 36.3 µM; in the assay with A549/ATCC it was 34.7 µM; in the assay with OVCAR-4, 37.2 µM; in the assay on NCI-H226, 60.3 µM; with NCI-H23 it was 12.6 µM; in the assay with OVCAR-5 it was 83.2 µM. Also, the GI50 in the assay with U251 amounted to 31.6 µM; in the assay on SN12C, 38.9 µM; with HT29, 37.2 µM; with CCRF-CEM, 0.79 µM; with HS 578T, 14.1 µM; in the assay on SK-MEL-5, 52.5 µM. In addition, the GI50 in the assay with IGROV1 worked out at 47.9 µM; with UACC-62, 57.6 µM; with TK-10, 77.6 µM; with MDA-MB-231/ATCC (MDA-MB-231/ATCC (row head MDA-MB-)) it was 44.7 µM; in the assay on MDA-MB-231/ATCC (listed as head printed 231/ATCC (second line of MDA-MB-231/ATCC)) it was 95.5 µM; in the assay with UO-31 it was 21.4 µM. In addition, the GI50 came to 34.7 µM with CAKI-1; 33.1 µM in the assay on M14; 30.2 µM in the assay with RXF 393; 38.9 µM in the assay on NCI-H460; 29.5 µM in the assay with 786-0; 31.6 µM in the assay on SF-295. Besides, the GI50 in the assay with BT-549 was determined as 22.4 µM; in the assay with PC-3, 50.1 µM; with HOP-62, 30.9 µM; in the assay with MOLT-4, 26.9 µM; in the assay on SNB-75 it was 15.8 µM.

With `COc1cc2nc(-c3ccc(N)cc3)sc2c(OC)c1OC` [Compound 21d, 4-(5,6,7-trimethoxybenzo[d]thiazol-2-yl)benzenamine], the entries for the “cells in G2/M phase” value (in assay [1]; with K562 (Leukemia) cells) were 20% and 12%, respectively. In the assay with p21, the “p21 protein (Western blot)” value is on record as “increase”. Further, in the assay on caspase-9, the “caspase-9 protein (Western blot)” value is “increase”.

In the case of `Nc1ccc(-c2nc3ccc(F)cc3s2)cc1` [Compound 21a, 4-(6-fluorobenzo[d]thiazol-2-yl)benzenamine], the “cells in G2/M phase” value in assay [1] was determined as 21%; in the assay on K562 (Leukemia) cells it was 14%. The “p21 protein (Western blot)” value with p21 was “increase”. For the same compound, the “caspase-9 protein (Western blot)” value in the assay on caspase-9 is listed as “increase”.

The values above are taken from patent US9187467B2, “2-phenyl benzothiazole linked imidazole compounds as potential anticancer agents and process for the preparation thereof” (Council of Scientific and Industrial Research, priority 2012, dated 2015).
